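96-well plates; 48 h exposure; 5 concentrations. Endpoints by linear interpolation between flanking doses. Not reached: highest tested concentration assigned. GI50: concentration for 50% inhibition of growth. TGI: total growth inhibition.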
Tests used:
Assay in all cases: growth of human tumour cells (NCI), 48 h
786-0 renal = test system: 786-0 renal
A498 renal = test system: A498 renal
A549 NSCLC = test system: A549 NSCLC
BT-549 breast = test system: BT-549 breast
HL-60(TB) leukemia = test system: HL-60(TB) leukemia
MCF7 breast = test system: MCF7 breast
MDA-MB-231 breast = test system: MDA-MB-231 breast
OVCAR-3 ovarian = test system: OVCAR-3 ovarian
RXF 393 renal = test system: RXF 393 renal
SK-OV-3 ovarian = test system: SK-OV-3 ovarian

| SMILES | GI50 (786-0 renal) | TGI (786-0 renal) | GI50 (A498 renal) | TGI (A498 renal) | GI50 (A549 NSCLC) | TGI (A549 NSCLC) | GI50 (BT-549 breast) | TGI (BT-549 breast) | GI50 (HL-60(TB) leukemia) | TGI (HL-60(TB) leukemia) | GI50 (MCF7 breast) | TGI (MCF7 breast) | GI50 (MDA-MB-231 breast) | TGI (MDA-MB-231 breast) | GI50 (OVCAR-3 ovarian) | TGI (OVCAR-3 ovarian) | GI50 (RXF 393 renal) | TGI (RXF 393 renal) | GI50 (SK-OV-3 ovarian) | TGI (SK-OV-3 ovarian) |
| --- | --- | --- | --- | --- | --- | --- | --- | --- | --- | --- | --- | --- | --- | --- | --- | --- | --- | --- | --- | --- |
| COc1cc2c3c(n(CCCN)c(=O)c2cc1OC)-c1ccc([N+](=O)[O-])cc1C3=O | 1.66 µM | 3.55 µM | 17.4 µM | 34.1 µM | 9.88 µM | 34.7 µM | 13.4 µM | 28 µM | 17.8 µM | 37.8 µM | 0.317 µM | 1.96 µM | 18.9 µM | 34.6 µM | 16.5 µM | 37.5 µM | 19.2 µM | 43.7 µM | 12.2 µM | 28.7 µM |
| O=[N+]([O-])/C=C/c1c(Cl)cccc1Cl |  | 1.52 µM |  | 30 µM |  | 22.6 µM |  | 4.96 µM |  | > 100 µM |  | 3.29 µM |  | 4.26 µM |  | 3.28 µM |  | > 21.8 µM |  | 35.5 µM |
| CCC(=O)N1C/C(=C/c2ccc(Cl)cc2)C(=O)/C(=C/c2ccc(Cl)cc2)C1 | 0.332 µM | 1.22 µM | 1.5 µM | 3.04 µM | 0.868 µM | 4.14 µM | 0.462 µM | 1.52 µM | 1.25 µM | 5.03 µM | 0.324 µM | 1.36 µM | 1.05 µM | 2.9 µM | 0.622 µM | 1.75 µM | 0.723 µM | 2.08 µM | 1.83 µM | 3.76 µM |
| C[C@H]1[C@H](C)N1CC(O)Cn1ccnc1[N+](=O)[O-] (some centres not stated) |  | > 100 µM |  | > 100 µM |  | > 100 µM |  | > 100 µM |  | > 100 µM |  | > 100 µM |  | > 100 µM |  | > 100 µM |  | > 100 µM |  | > 100 µM |
| C/C(=C\c1ccn(-c2ccccc2N)n1)[C@@H]1C[C@@H]2O[C@]2(C)CCC[C@H](C)[C@H](O)[C@@H](C)C(=O)C(C)(C)[C@@H](O)CC(=O)O1 | 0.0938 µM | > 42.6 µM | 0.0372 µM | 0.669 µM | 0.0372 µM | > 50 µM | 0.116 µM | > 13.1 µM | 0.0329 µM | 0.228 µM | 0.0168 µM | > 50 µM | 0.247 µM | > 50 µM | 0.0177 µM | 0.457 µM | 0.0526 µM | 0.604 µM | 0.081 µM | > 50 µM |
| O=[N+]([O-])c1cc[n+]([O-])c2ccccc12 | 0.217 µM | 0.753 µM | 0.176 µM | 0.471 µM | 0.149 µM | 0.584 µM | 0.2 µM | 0.728 µM | 1.05 µM | 4.29 µM | 0.047 µM | 2.2 µM | 0.282 µM | 1.48 µM | 0.197 µM | 0.471 µM | 0.211 µM | 0.619 µM | 1.78 µM | 5.55 µM |
| [2H]C([2H])([2H])NC(=O)c1nnc(NC(=O)C2CC2)cc1Nc1cccc(-c2ncn(C)n2)c1OC | 28.4 µM | > 100 µM | 4.12 µM | > 100 µM | 50.1 µM | > 100 µM | 23.2 µM | > 100 µM | 14 µM | 82.6 µM | 92.9 µM | > 100 µM | 19.1 µM | > 100 µM | 41.3 µM | > 100 µM | 6.04 µM | > 100 µM | 5.02 µM | 48.9 µM |
| COc1ccc(-c2cc(=O)n(-c3nc4ccccc4[nH]3)[nH]2)cc1OC | 12.4 µM | > 100 µM | 2.33 µM | 8.72 µM | 4.72 µM | 81.9 µM | 23.7 µM | > 100 µM | 3.59 µM | 19.6 µM | 4.74 µM | > 100 µM | 19.5 µM | > 100 µM | 12.9 µM | > 100 µM | 1.24 µM | 11.9 µM | 35.3 µM | > 100 µM |
| C=CC(=O)N1CCC(c2ccc(C(N)=O)c(-c3ccc(Oc4ccccc4)cc3)n2)CC1 | 31.9 µM | > 100 µM | 12.8 µM | 50.1 µM | 28.9 µM | > 100 µM | 22.7 µM | 95.4 µM | 19.5 µM | 58.8 µM | 22.7 µM | > 100 µM | 39 µM | > 100 µM | 36 µM | > 100 µM | 12.5 µM | 53.6 µM | 23.4 µM | > 100 µM |
| c1ccc(-c2nn3c(c2-c2ccnc4cc(OCCN5CCOCC5)ccc24)CCC3)nc1 | > 100 µM | > 100 µM | > 100 µM | > 100 µM | 43.8 µM | > 100 µM | > 79.9 µM | > 100 µM | > 100 µM | > 100 µM | 12.9 µM | > 100 µM | > 100 µM | > 100 µM | > 69.9 µM | > 100 µM | > 100 µM | > 100 µM | > 100 µM | > 100 µM |
| COc1ccc2c(c1)nc(NNC(=O)c1cnccn1)c1cccn12 | 0.432 µM | 2.18 µM | 1.31 µM | 2.93 µM | 0.298 µM | 3.45 µM | 0.917 µM | 3.62 µM | 0.257 µM |  | 0.266 µM | 1.86 µM | 0.682 µM | 3.39 µM | 0.186 µM | 3.82 µM | 0.689 µM | 2.47 µM | 0.281 µM | 3 µM |
| CN(C)C(=O)Nc1nc2cc(Cl)c(Cl)cc2[nH]1 | 1.21 µM | > 100 µM | 0.487 µM |  | 0.704 µM | > 25.4 µM | 2.79 µM | > 100 µM | 0.241 µM |  | 0.367 µM | > 100 µM | 3.42 µM | > 100 µM | 0.393 µM | 1.94 µM | 1.63 µM | > 28.7 µM | 1.09 µM | > 56.6 µM |
